From patent publication US10456343B2, “Microemulsion compositions comprising polydatin and method of use” (L'OREAL, priority 2017, dated 2019)

Assay: Solubility of polydatin in the microemulsion compositions
Type: physicochemical
Conditions: solubilized in microemulsion
Description: The inventors of the instant disclosure discovered that the incorporation of polydatin into the microemulsion compositions disclosed herein results in a variety of surprising and unexpected results. […] A higher amount of solubilized polydatin is particularly beneficial in cosmetic compositions for application to the skin because it allows for increased transdermal delivery. The inventors also unexpectedly discovered that polydatin acts as a “clarifying agent,” i.e., it improves or enhances the transparency (clarity) of microemulsion compositions. […] Both formulations include baicalin. […] Thus, in addition to polydatin, the microemulsion composition of the instant disclosure are effective for incorporating baicalin into cosmetic and/or pharmaceutical compositions.

In the case of OC[C@H]1O[C@@H](Oc2cc(O)cc(/C=C/c3ccc(O)cc3)c2)[C@H](O)[C@@H](O)[C@@H]1O [polydatin, 3,4′,5-trihydroxystibene-3-β-mono-D glucoside], the “solubility of polydatin in the microemulsion compositions” value is reported as “up to 1.5%”.
